# In US10405547B2, “Substituted cyclic amides as herbicides” (FMC Corporation, priority 2015, dated 2019):
# Tests used:
# Format in all cases: in vivo
# [1] = tested on: ryegrass, Italian (Lolium multiflorum); experiment: Test A postemergence, Italian ryegrass; details: visual injury, 0 to 100 scale (0 no effect, 100 complete control), approximately 10 days
# Outline: (§1)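 Greenhouse pot test in loam/sand soil. Pre: directed soil spray after seeding. Post: 1–2-leaf plants, 2–10 cm. Formulation: non-phytotoxic solvent + surfactant. Visual rating vs untreated controls at ~10 d, 0 (no effect) to 100 (complete control).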
# [2] = tested on: ragweed (common ragweed, Ambrosia elatior); experiment: Test A postemergence, ragweed; details: visual injury, 0 to 100 scale (0 no effect, 100 complete control), approximately 10 days
# Outline: as §1
# [3] = tested on: galium (catchweed bedstraw, Galium aparine); experiment: Test A postemergence, galium; details: visual injury, 0 to 100 scale (0 no effect, 100 complete control), approximately 10 days
# Outline: as §1
# [4] = tested on: pigweed (Amaranthus retroflexus); experiment: Test A postemergence, pigweed; details: visual injury, 0 to 100 scale (0 no effect, 100 complete control), approximately 10 days
# Outline: as §1
# [5] = tested on: foxtail, giant (Setaria faberii); experiment: Test A preemergence, giant foxtail; details: 0 to 100 scale (0 no effect, 100 complete control)
# Outline: as §1
# [6] = tested on: wheat (Triticum aestivum); experiment: Test A postemergence, wheat; details: visual injury, 0 to 100 scale (0 no effect, 100 complete control), approximately 10 days
# Outline: as §1
# [7] = tested on: ryegrass, Italian (Lolium multiflorum); experiment: Test A preemergence, Italian ryegrass; details: 0 to 100 scale (0 no effect, 100 complete control)
# Outline: as §1
# [8] = tested on: barnyardgrass (Echinochloa crus-galli); experiment: Test A postemergence, barnyardgrass; details: visual injury, 0 to 100 scale (0 no effect, 100 complete control), approximately 10 days
# Outline: as §1
# [9] = tested on: kochia (Kochia scoparia); experiment: Test A postemergence, kochia; details: visual injury, 0 to 100 scale (0 no effect, 100 complete control), approximately 10 days
# Outline: as §1
# [10] = tested on: ragweed (common ragweed, Ambrosia elatior); experiment: Test A preemergence, ragweed; details: 0 to 100 scale (0 no effect, 100 complete control)
# Outline: as §1
# [11] = tested on: blackgrass (Alopecurus myosuroides); experiment: Test A postemergence, blackgrass; details: visual injury, 0 to 100 scale (0 no effect, 100 complete control), approximately 10 days
# Outline: as §1
# [12] = tested on: pigweed (Amaranthus retroflexus); experiment: Test A preemergence, pigweed; details: 0 to 100 scale (0 no effect, 100 complete control)
# Outline: as §1
# [13] = tested on: barnyardgrass (Echinochloa crus-galli); experiment: Test A preemergence, barnyardgrass; details: 0 to 100 scale (0 no effect, 100 complete control)
# Outline: as §1
# [14] = tested on: foxtail, giant (Setaria faberii); experiment: Test A postemergence, giant foxtail; details: visual injury, 0 to 100 scale (0 no effect, 100 complete control), approximately 10 days
# Outline: as §1
# [15] = tested on: kochia (Kochia scoparia); experiment: Test A preemergence, kochia; details: 0 to 100 scale (0 no effect, 100 complete control)
# Outline: as §1
# [16] = tested on: corn (Zea mays); experiment: Test A postemergence, corn; details: visual injury, 0 to 100 scale (0 no effect, 100 complete control), approximately 10 days
# Outline: as §1
SMILES,"Plant response rating, Ryegrass, Italian ([1]; 125 g ai/ha)","Plant response rating, Ryegrass, Italian ([1]; 500 g ai/ha)","Plant response rating, Ragweed ([2]; 125 g ai/ha)","Plant response rating, Ragweed ([2]; 500 g ai/ha)","Plant response rating, Galium ([3]; 125 g ai/ha)","Plant response rating, Galium ([3]; 500 g ai/ha)","Plant response rating, Pigweed ([4]; 125 g ai/ha)","Plant response rating, Pigweed ([4]; 500 g ai/ha)","Plant response rating, Foxtail, Giant ([5]; 125 g ai/ha)","Plant response rating, Foxtail, Giant ([5]; 500 g ai/ha)","Plant response rating, Wheat ([6]; 125 g ai/ha)","Plant response rating, Wheat ([6]; 500 g ai/ha)","Plant response rating, Ryegrass, Italian ([7]; 125 g ai/ha)","Plant response rating, Ryegrass, Italian ([7]; 500 g ai/ha)","Plant response rating, Barnyardgrass ([8]; 125 g ai/ha)","Plant response rating, Barnyardgrass ([8]; 500 g ai/ha)","Plant response rating, Kochia ([9]; 125 g ai/ha)","Plant response rating, Kochia ([9]; 500 g ai/ha)","Plant response rating, Ragweed ([10]; 125 g ai/ha)","Plant response rating, Ragweed ([10]; 500 g ai/ha)",also measured
O=C1NCC(c2cccc(Cn3cncn3)c2)C1C(=O)Nc1cccc(F)c1F (stereo not shown) [Compound 32],0,0,0,0,0,40,0,0,0,40,0,0,0,0,0,10,0,0,0,0,"Plant response rating, Blackgrass ([11]; 125 g ai/ha): 0; Plant response rating, Blackgrass ([11]; 500 g ai/ha): 0; Plant response rating, Pigweed ([12]; 125 g ai/ha): 0; Plant response rating, Pigweed ([12]; 500 g ai/ha): 0; Plant response rating, Barnyardgrass ([13]; 125 g ai/ha): 0; Plant response rating, Barnyardgrass ([13]; 500 g ai/ha): 0; Plant response rating, Foxtail, Giant ([14]; 125 g ai/ha): 0; Plant response rating, Foxtail, Giant ([14]; 500 g ai/ha): 20; Plant response rating, Kochia ([15]; 125 g ai/ha): 0; Plant response rating, Kochia ([15]; 500 g ai/ha): 0; Plant response rating, Corn ([16]; 125 g ai/ha): 0; Plant response rating, Corn ([16]; 500 g ai/ha): 0"
O=C1NCC(c2cccc(Cn3cccn3)c2)C1C(=O)Nc1ccccc1Cl (stereo not shown) [Compound 29],0,0,0,0,0,0,0,0,0,40,0,0,0,0,0,20,0,0,0,0,"Plant response rating, Blackgrass ([11]; 125 g ai/ha): 0; Plant response rating, Blackgrass ([11]; 500 g ai/ha): 0; Plant response rating, Pigweed ([12]; 125 g ai/ha): 0; Plant response rating, Pigweed ([12]; 500 g ai/ha): 0; Plant response rating, Barnyardgrass ([13]; 125 g ai/ha): 0; Plant response rating, Barnyardgrass ([13]; 500 g ai/ha): 40; Plant response rating, Foxtail, Giant ([14]; 125 g ai/ha): 0; Plant response rating, Foxtail, Giant ([14]; 500 g ai/ha): 20; Plant response rating, Kochia ([15]; 125 g ai/ha): 0; Plant response rating, Kochia ([15]; 500 g ai/ha): 0; Plant response rating, Corn ([16]; 125 g ai/ha): 0; Plant response rating, Corn ([16]; 500 g ai/ha): 0"
O=C1NCC(c2cccc(Cn3cccn3)c2)C1C(=O)Nc1ccccc1F (stereo not shown) [Compound 27],0,0,0,0,0,0,0,0,20,30,0,0,0,0,40,70,0,0,0,0,"Plant response rating, Blackgrass ([11]; 125 g ai/ha): 0; Plant response rating, Blackgrass ([11]; 500 g ai/ha): 0; Plant response rating, Pigweed ([12]; 125 g ai/ha): 0; Plant response rating, Pigweed ([12]; 500 g ai/ha): 0; Plant response rating, Barnyardgrass ([13]; 125 g ai/ha): 0; Plant response rating, Barnyardgrass ([13]; 500 g ai/ha): 20; Plant response rating, Foxtail, Giant ([14]; 125 g ai/ha): 40; Plant response rating, Foxtail, Giant ([14]; 500 g ai/ha): 50; Plant response rating, Kochia ([15]; 125 g ai/ha): 0; Plant response rating, Kochia ([15]; 500 g ai/ha): 0; Plant response rating, Corn ([16]; 125 g ai/ha): 0; Plant response rating, Corn ([16]; 500 g ai/ha): 0"
O=C1NCC(c2cccc(OCC3CC3)c2)C1C(=O)Nc1ccc(F)cc1F (stereo not shown) [Compound 3],0,30,0,0,20,40,0,0,60,80,0,20,0,20,10,60,0,40,0,0,"Plant response rating, Blackgrass ([11]; 125 g ai/ha): 0; Plant response rating, Blackgrass ([11]; 500 g ai/ha): 30; Plant response rating, Pigweed ([12]; 125 g ai/ha): 0; Plant response rating, Pigweed ([12]; 500 g ai/ha): 0; Plant response rating, Barnyardgrass ([13]; 125 g ai/ha): 40; Plant response rating, Barnyardgrass ([13]; 500 g ai/ha): 70; Plant response rating, Foxtail, Giant ([14]; 125 g ai/ha): 20; Plant response rating, Foxtail, Giant ([14]; 500 g ai/ha): 70; Plant response rating, Kochia ([15]; 125 g ai/ha): 0; Plant response rating, Kochia ([15]; 500 g ai/ha): 20; Plant response rating, Corn ([16]; 125 g ai/ha): 0; Plant response rating, Corn ([16]; 500 g ai/ha): 20"
O=C1NCC(c2cccc(COc3ccccc3)c2)C1C(=O)Nc1ccc(F)cc1F (stereo not shown) [Compound 20],0,0,0,0,0,0,0,0,30,80,0,0,0,0,40,70,0,0,0,0,"Plant response rating, Blackgrass ([11]; 125 g ai/ha): 0; Plant response rating, Blackgrass ([11]; 500 g ai/ha): 0; Plant response rating, Pigweed ([12]; 125 g ai/ha): 0; Plant response rating, Pigweed ([12]; 500 g ai/ha): 0; Plant response rating, Barnyardgrass ([13]; 125 g ai/ha): 20; Plant response rating, Barnyardgrass ([13]; 500 g ai/ha): 70; Plant response rating, Foxtail, Giant ([14]; 125 g ai/ha): 40; Plant response rating, Foxtail, Giant ([14]; 500 g ai/ha): 60; Plant response rating, Kochia ([15]; 125 g ai/ha): 0; Plant response rating, Kochia ([15]; 500 g ai/ha): 30; Plant response rating, Corn ([16]; 125 g ai/ha): 0; Plant response rating, Corn ([16]; 500 g ai/ha): 0"
